Here are results for 66 compounds from patent US20110144345A1, “SULFOXYIMINO-SUBSTITUTED BENZOYL DERIVATIVE AND HERBICIDE” (NIPPON SODA CO., LTD., priority 2008, published 2011).

Structures are written as SMILES.

By melting point is commonly meant the temperature of the solid-liquid transition. In the case of `CSc1ccc(C(=O)c2cnn(C)c2O)c(Cl)c1N=S1(=O)CCCCC1` [Example 42], the melting point was in the range of 157 to 159 °C.

Consider `CSc1ccc(C(=O)C2=C(O)CCCC2=O)c(Cl)c1N=S1(=O)CCCCC1` [Example 41], for which the melting point was 178 to 180 °C.

`COCCOCOc1ccc(C(=O)c2cnn(C)c2O)c(Cl)c1N=S1(=O)CCCCC1` [Example 259]: the melting point fell in the range of 77 to 79 °C.

Compound `COC(=O)/C=C/c1ccc(C(=O)c2cnn(C)c2O)c(Cl)c1N=S1(=O)CCCCC1` [Example 91] showed a melting point of 145 to 150 °C.

In turn, `Cn1ncc(C(=O)c2ccc(OC3CCCC3)c(N=S3(=O)CCCCC3)c2Cl)c1O` [Example 49] displayed a melting point of 145 to 148 °C.

In turn, `Cn1ncc(C(=O)c2ccc(-c3cccs3)c(N=S3(=O)CCCCC3)c2Cl)c1O` [Example 214] had a melting point of 158 to 164 °C.

The compound `CCS(=O)(CC)=Nc1c(C)ccc(C(=O)c2cnn(C)c2O)c1C` [Example 167] had a melting point of 126 to 128 °C.

On to `CSC(=O)Oc1c(C(=O)c2ccc(OCCC3OCCO3)c(N=S3(=O)CCCCC3)c2Cl)cnn1C` [Example 200], for which the melting point was 159 to 161 °C.

The compound `Cn1ncc(C(=O)c2ccc(OCC(F)(F)F)c(N=S3(=O)CCCCC3)c2Cl)c1O` [Example 144] showed a melting point of 97 to 99 °C.

`Cn1ncc(C(=O)c2ccc(OC[S+](C)[O-])c(N=S3(=O)CCCCC3)c2Cl)c1O` (stereo not drawn) [Example 245] showed a melting point of 95 to 97 °C.

`COc1ccc(C(=O)c2cnn(C)c2O)c([N+](=O)[O-])c1N=S1(=O)CCCCC1` [Example 76]: the melting point lay within 179 to 181 °C.

With `COC(=O)c1ccc(C(=O)c2cnn(C)c2O)c(Cl)c1N=S1(=O)CCOCC1` [Example 25], the melting point lay within 147 to 149 °C.

In the case of `Cn1ncc(C(=O)c2ccc(OCC3CC3)c(N=S3(=O)CCCCC3)c2Cl)c1O` [Example 215], the melting point lay within 188 to 190 °C.

In turn, `Cn1ncc(C(=O)c2cccc(N=S3(=O)CCCCC3)c2F)c1O` [Example 170] returned a melting point of 162 to 164 °C.

For the compound `CCCOc1ccc(C(=O)c2cnn(C)c2O)c(Cl)c1N=S1(=O)CCCCC1` [Example 254], the melting point fell in the range of 85 to 87 °C.

Take `COc1ccc(C(=O)c2cnn(C)c2O)c(Br)c1N=S1(=O)CCCCC1` [Example 223]: the melting point is 144 to 146 °C.

As for `COC(=O)c1ccc(C(=O)c2cnn(C)c2O)cc1N=S1(=O)CCCCC1` [Example 96], the melting point fell in the range of 133 to 137 °C.

`C#CCOc1ccc(C(=O)c2cnn(C)c2O)c(Cl)c1N=S1(=O)CCCCC1` [Example 205] came in with a melting point of 169 to 171 °C.

Compound `Cn1ncc(C(=O)c2ccc(OCc3ccccc3)c(N=S3(=O)CCCCC3)c2Cl)c1O` [Example 66] showed a melting point of 95 to 97 °C.

As for `COc1ccc(C(=O)C2=C(O)CCCC2=O)c(OC)c1N=S1(=O)CCCCC1` [Example 92], the melting point is 129 to 131 °C.

The compound `COc1ccc(C(=O)C2=C(O)CCCC2=O)c(Cl)c1N=S(C)(=O)c1cccs1` (stereo not drawn) [Example 194] had a melting point of 159 to 162 °C.

As for `COc1ccc(C(=O)c2cnn(C(C)(C)C)c2O)c(Cl)c1N=S1(=O)CCCCC1` [Example 88], the melting point lay in the range of 200 to 202 °C.

`COCOc1ccc(C(=O)c2cnn(C)c2O)c(Cl)c1N=S1(=O)CCCCC1` [Example 221] yielded a melting point of 93 to 95 °C.

The compound `COc1ccc(C(=O)c2cnn(C)c2O)c(Cl)c1N=S(C)(=O)c1cccs1` (stereo not drawn) [Example 192] had a melting point of 90 to 92 °C.

With `CCOc1ccc(C(=O)c2cnn(C)c2O)c(Cl)c1N=S1(=O)CCCCC1` [Example 12], the melting point was in the range of 88 to 90 °C.

Take `CCn1ncc(C(=O)c2ccc(C(=O)OC)c(N=S3(=O)CCOCC3)c2Br)c1O` [Example 74]: the melting point was 210 to 215 °C.

In turn, `Cn1ncc(C(=O)c2ccc(C#N)c(N=S3(=O)CCCCC3)c2Cl)c1O` [Example 44] yielded a melting point of 192 to 196 °C.

In turn, `O=C1CCCC(O)=C1C(=O)c1ccc(OCc2ccccc2)c(N=S2(=O)CCCCC2)c1Cl` [Example 65] returned a melting point of 152 to 155 °C.

`Cn1ncc(C(=O)c2cccc(N=S3(=O)CCCCC3)c2)c1O` [Example 35] yielded a melting point of 112 to 113 °C.

For `COc1ccc(C(=O)c2cnn(C)c2O)c(OC)c1N=S1(=O)CCCCC1` [Example 99], the melting point is 116 to 118 °C.

Regarding `Cn1ncc(C(=O)c2ccc(OCCC3OCCO3)c(N=S3(=O)CCCCC3)c2Cl)c1O` [Example 199], the melting point fell in the range of 99 to 101 °C.

Turning to `N#Cc1ccc(C(=O)C2=C(O)CCCC2=O)c(Cl)c1N=S1(=O)CCCCC1` [Example 186], the melting point lay within 124 to 126 °C.

`CC(C)Oc1ccc(C(=O)c2cnn(C)c2O)c(Cl)c1N=S1(=O)CCCCC1` [Example 16] yielded a melting point of 139 to 141 °C.

With `COc1ccc(C(=O)c2cnn(C)c2O)c(Cl)c1N=S(C)(=O)c1ccccc1` (stereo not drawn) [Example 249], the melting point lay within 88 to 91 °C.

Regarding `CCOc1ccc(C(=O)c2cnn(C)c2O)c(OC)c1N=S1(=O)CCCCC1` [Example 175], the melting point was in the range of 109 to 111 °C.

As for `CCn1ncc(C(=O)c2ccc(OC)c(N=S3(=O)CCCCC3)c2[N+](=O)[O-])c1O` [Example 77], the melting point was in the range of 190 to 192 °C.

Compound `Cn1ncc(C(=O)c2cccc(N=S3(=O)CCCCC3)c2Cl)c1O` [Example 39] came in with a melting point of 177 to 179 °C.

The compound `Cn1ncc(C(=O)c2ccc(-c3ccco3)c(N=S3(=O)CCCCC3)c2Cl)c1O` [Example 228] showed a melting point of 97 to 103 °C.

Turning to `CCOC(=O)c1ccc(C(=O)c2cnn(C)c2O)c(Cl)c1N=S1(=O)CCCCC1` [Example 47], the melting point lay in the range of 88 to 91 °C.

Consider `CCS(=O)(CC)=Nc1c(C(=O)OC)ccc(C(=O)c2cnn(C)c2O)c1Cl` [Example 26], for which the melting point fell in the range of 69 to 73 °C.

`COc1ccc(C(=O)c2cnn(C)c2OC(=O)C2CC2)c(Cl)c1N=S1(=O)CCCCC1` [Example 246] came in with a melting point of 129 to 131 °C.

Consider `CCn1ncc(C(=O)c2ccc(C(=O)OC)c(N=S3(=O)CCCCC3)c2Cl)c1O` [Example 30], for which the melting point lay within 201 to 203 °C.

Consider `CSc1c(C(=O)c2cnn(C)c2O)ccc(C(F)(F)F)c1N=S1(=O)CCCCC1` [Example 169], for which the melting point was 155 to 157 °C.

For the compound `Cn1ncc(C(=O)c2ccc(OCC(F)(F)C(F)(F)F)c(N=S3(=O)CCCCC3)c2Cl)c1O` [Example 242], the melting point lay in the range of 106 to 108 °C.

With `CCOc1c(C(=O)c2cnn(C)c2O)ccc(OC)c1N=S1(=O)CCCCC1` [Example 156], the melting point was in the range of 111 to 113 °C.

`CC(=O)Oc1ccc(C(=O)c2cnn(C)c2O)c(Cl)c1N=S1(=O)CCCCC1` [Example 189] registered a melting point of 135 to 139 °C.

The compound `COC(=O)c1ccc(C(=O)c2cnn(C)c2O)c(Br)c1N=S1(=O)CCOCC1` [Example 69] had a melting point of 158 to 164 °C.

For the compound `CCn1ncc(C(=O)c2ccc(OC)c(N=S3(=O)CCCCC3)c2Cl)c1O` [Example 4], the melting point is 137 to 139 °C.

In turn, `Cn1ncc(C(=O)c2ccc(O)c(N=S3(=O)CCCCC3)c2Cl)c1O` [Example 233] returned a melting point of 165 to 167 °C.

In turn, `CC(=O)c1ccc(C(=O)c2cnn(C)c2O)c(Cl)c1N=S1(=O)CCCCC1` [Example 255] gave a melting point of 100 to 104 °C.

For `COc1ccc(C(=O)c2c(C3CC3)nn(C)c2O)c(Cl)c1N=S1(=O)CCCCC1` [Example 56], the melting point lay within 145 to 147 °C.

The compound `Cc1ccc(C(=O)c2cnn(C)c2O)c(C)c1N=S(C)(C)=O` [Example 168] came in with a melting point of 133 to 135 °C.

For the compound `CON=Cc1ccc(C(=O)c2cnn(C)c2O)c(Cl)c1N=S1(=O)CCCCC1` [Example 55], the melting point lay in the range of 98 to 105 °C.

As to `COC(=O)c1ccc(C(=O)C2=C(O)CCCC2=O)c(Cl)c1N=S(C)(C)=O` [Example 160], the melting point lay in the range of 135 to 137 °C.

Consider `COc1ccc(C(=O)C(C#N)C(=O)C2CC2)c(Cl)c1N=S1(=O)CCCCC1` (stereo not drawn) [Example 5], for which the melting point was in the range of 154 to 156 °C.

In turn, `CC(=O)OCc1ccc(C(=O)c2cnn(C)c2O)c(Cl)c1N=S1(=O)CCCCC1` [Example 83] displayed a melting point of 64 to 68 °C.

As for `Cn1ncc(C(=O)c2ccc(OCS(C)(=O)=O)c(N=S3(=O)CCCCC3)c2Cl)c1O` [Example 241], the melting point lay within 104 to 106 °C.

In turn, `CCOc1c(C(=O)c2cnn(CC)c2O)ccc(OC)c1N=S1(=O)CCCCC1` [Example 163] returned a melting point of 124 to 126 °C.

The compound `COc1ccc(C(=O)c2cnn(C)c2OCC(F)(F)F)c(Cl)c1N=S1(=O)CCCCC1` [Example 235] had a melting point of 131 to 132 °C.

`Cn1ncc(C(=O)c2ccc(Oc3ccccc3)c(N=S3(=O)CCCCC3)c2Cl)c1O` [Example 180] displayed a melting point of 134 to 137 °C.

`COCc1ccc(C(=O)c2cnn(C)c2O)c(Cl)c1N=S1(=O)CCCCC1` [Example 52] had a melting point of 78 to 82 °C.

`CSCOc1ccc(C(=O)c2cnn(C)c2O)c(Cl)c1N=S1(=O)CCCCC1` [Example 238] showed a melting point of 112 to 114 °C.

Turning to `COC(=O)c1ccc(C(=O)c2cnn(C)c2O)c(Cl)c1N=S1(=O)CCCCC1` [Example 21], the melting point was 204 to 206 °C.

In turn, `CCS(=O)(CC)=Nc1c(OC)ccc(C(=O)c2cnn(C)c2O)c1OC` [Example 140] came in with a melting point of 96 to 98 °C.

Turning to `COCCOc1ccc(C(=O)c2cnn(C)c2O)c(Cl)c1N=S1(=O)CCCCC1` [Example 212], the melting point was 153 to 155 °C.

Compound `O=C1CCCC(O)=C1C(=O)c1ccc(-c2ccccc2)c(N=S2(=O)CCCCC2)c1Cl` [Example 23] came in with a melting point of 166 to 168 °C.
